Key:
Assay type in all cases: in vivo
[1] = test system: transplanted Oryza sativa; experiment: Test Example 1: effect on crop, application before weed generation in submerged conditions; conditions: Application herbicide amount 320 g/ha; Seventeenth Table
How it was run: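 Pre-emergence water-surface application under 4 cm flooding, same day as sowing, with rice transplanted at 2.5 leaf stage. Dose given as g/ha. Plants grown at 25° C. to 30° C. and rated three weeks later on a 0 (≤5%) to 5 (≥90%) herbicidal-ratio scale.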

[2] = test system: directly sowed Oryza sativa; experiment: Test Example 3: effect on crop by application to foliage (Wagner pot, water depth 0.1-0.5 cm); conditions: Nineteenth Table; application to foliage; application herbicide amount 320 g/ha
How it was run: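 Wagner pot foliar test: sow, grow 14 d (25–30 °C), spray diluted emulsion at set g/ha, score after 3 wk; 0 ≤5%, 5 ≥90% herbicidal ratio.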

Stellaria media = experiment: Test Example 4: herbicidal effect by application to foliage (diluvial soil, plastic box); conditions: for P: herbicidal effect on Stellaria media: application to foliage, application herbicide amount 320 g/ha; for P (Stellaria media) herbicidal effect grade: foliage application
How it was run: (§1)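 Seeds sown in sterilized diluvial soil, covered ~1.5 cm, grown 14 days in greenhouse at 25° C. to 30° C. Emulsion formulation diluted in water to set rate (g/ha) and sprayed onto stems and leaves. Effect scored visually 3 weeks later on 0–5 scale (5 = ≥90% herbicidal ratio, 0 = ≤5%).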

[3] = test system: Beta vulgaris ssp. vulgaris; experiment: Test Example 4: effect on crop by application to foliage (diluvial soil, plastic box); conditions: for f: effect on crop, Beta vulgaris ssp. vulgaris: application to foliage, application herbicide amount 320 g/ha; for f (Beta vulgaris ssp. vulgaris) effect on crop grade: foliage application
How it was run: as §1

Brassica campestris L. = experiment: as above; conditions: for g: effect on crop, Brassica campestris L.: application to foliage, application herbicide amount 320 g/ha; for g (Brassica campestris L.) effect on crop grade: foliage application
How it was run: as §1

Glycine max = experiment: as above; conditions: for d: effect on crop, Glycine max: application to foliage, application herbicide amount 320 g/ha; for d (Glycine max) effect on crop grade: Application herbicide amount 320 g/ha; for d (Glycine max) effect on crop grade / c (Glycine max) effect on crop grade: foliage application; for c (Glycine max) effect on crop grade: 320 g/ha
How it was run: as §1

Triticum aestivum = experiment: as above; conditions: for e: effect on crop, Triticum aestivum: application to foliage, application herbicide amount 320 g/ha; for e (Triticum aestivum) effect on crop grade: foliage application
How it was run: as §1

Zea mays = experiment: as above; conditions: for c: effect on crop, Zea mays: application to foliage, application herbicide amount 320 g/ha; for c (Zea mays) effect on crop grade: Application herbicide amount 320 g/ha; for c (Zea mays) effect on crop grade / b (Zea mays) effect on crop grade: foliage application; for b (Zea mays) effect on crop grade: 320 g/ha
How it was run: as §1

[4] = test system: directly sowed Oryza sativa; experiment: as above; conditions: for b: effect on crop, directly sowed Oryza sativa: application to foliage, application herbicide amount 320 g/ha; for b (directly sowed Oryza sativa) effect on crop grade: Application herbicide amount 320 g/ha; for b (directly sowed Oryza sativa) effect on crop grade / d (directly sowed Oryza sativa) effect on crop grade: foliage application; for d (directly sowed Oryza sativa) effect on crop grade: 320 g/ha
How it was run: as §1

[5] = Application herbicide amount 320 g/ha

| Compound | a: transplanted Oryza sativa (effect on crop grade) [1] | b (effect on crop grade) [2] | P: herbicidal effect on Stellaria media (Stellaria media) | f: effect on crop, Beta vulgaris ssp. vulgaris [3] | g: effect on crop, Brassica campestris L. (Brassica campestris L.) | d: effect on crop, Glycine max (Glycine max) | e: effect on crop, Triticum aestivum (Triticum aestivum) | c: effect on crop, Zea mays (Zea mays) | b: effect on crop, directly sowed Oryza sativa [4] | P (Stellaria media) herbicidal effect grade (Stellaria media; [5]) | f (Beta vulgaris ssp. vulgaris) effect on crop grade [3, 5] | g (Brassica campestris L.) effect on crop grade (Brassica campestris L.; [5]) | d (Glycine max) effect on crop grade (Glycine max) | e (Triticum aestivum) effect on crop grade (Triticum aestivum; [5]) | c (Zea mays) effect on crop grade (Zea mays) | b (directly sowed Oryza sativa) effect on crop grade [4] | further results |
| --- | --- | --- | --- | --- | --- | --- | --- | --- | --- | --- | --- | --- | --- | --- | --- | --- | --- |
| Cn1nnnc1NC(=O)c1ccc(C(F)(F)F)n2c(-c3ccccc3)nnc12 [2-007] | 3 (Herbicidal ratio of 40% or more and less than 70%) | 4 (Herbicidal ratio of 70% or more and less than 90%) | 5 (Herbicidal ratio of 90% or more (almost completely withered)) | 5 (Herbicidal ratio of 90% or more (almost completely withered)) | 4 (Herbicidal ratio of 70% or more and less than 90%) | 3 (Herbicidal ratio of 40% or more and less than 70%) | 2 (Herbicidal ratio of 20% or more and less than 40%) | 0 (Herbicidal ratio of 5% or less (almost no effect)) | 2 (Herbicidal ratio of 20% or more and less than 40%) | – | – | – | – | – | – | – | – |
| Cn1nnnc1NC(=O)c1ccc(C(F)(F)F)n2c(COCC(F)(F)F)nnc12 [2-015] | 1 (Herbicidal ratio of 5% or more and less than 20%) | 4 (Herbicidal ratio of 70% or more and less than 90%) | 4 (Herbicidal ratio of 70% or more and less than 90%) | 4 (Herbicidal ratio of 70% or more and less than 90%) | 3 (Herbicidal ratio of 40% or more and less than 70%) | 2 (Herbicidal ratio of 20% or more and less than 40%) | 2 (Herbicidal ratio of 20% or more and less than 40%) | 2 (Herbicidal ratio of 20% or more and less than 40%) | 4 (Herbicidal ratio of 70% or more and less than 90%) | – | – | – | – | – | – | – | – |
| COCCNc1nnc2c(C(=O)Nc3nnc(C)o3)ccc(C(F)(F)F)n12 [1-109] | 0 (Herbicidal ratio of 5% or less (almost no effect)) | 2 (Herbicidal ratio of 20% or more and less than 40%) | – | – | – | – | – | – | – | 4 (Herbicidal ratio of 70% or more and less than 90%) | 4 (Herbicidal ratio of 70% or more and less than 90%) | 4 (Herbicidal ratio of 70% or more and less than 90%) | 3 (Herbicidal ratio of 40% or more and less than 70%) | 0 (Herbicidal ratio of 5% or less (almost no effect)) | 1 (Herbicidal ratio of 5% or more and less than 20%) | 0 (Herbicidal ratio of 5% or less (almost no effect)) | – |
| CCSc1nnc2c(C(=O)Nc3nnco3)ccc(C(F)(F)F)n12 [1-106] | 1 (Herbicidal ratio of 5% or more and less than 20%) | 3 (Herbicidal ratio of 40% or more and less than 70%) | – | – | – | – | – | – | – | 5 (Herbicidal ratio of 90% or more (almost completely withered)) | 5 (Herbicidal ratio of 90% or more (almost completely withered)) | 4 (Herbicidal ratio of 70% or more and less than 90%) | 3 (Herbicidal ratio of 40% or more and less than 70%) | 3 (Herbicidal ratio of 40% or more and less than 70%) | 1 (Herbicidal ratio of 5% or more and less than 20%) | 3 (Herbicidal ratio of 40% or more and less than 70%) | – |
| Cc1nnc(NC(=O)c2ccc(C(F)(F)F)n3c(SCC4CC4)nnc23)o1 [1-115] | 0 (Herbicidal ratio of 5% or less (almost no effect)) | 0 (Herbicidal ratio of 5% or less (almost no effect)) | – | – | – | – | – | – | – | 4 (Herbicidal ratio of 70% or more and less than 90%) | 5 (Herbicidal ratio of 90% or more (almost completely withered)) | 1 (Herbicidal ratio of 5% or more and less than 20%) | 2 (Herbicidal ratio of 20% or more and less than 40%) | 2 (Herbicidal ratio of 20% or more and less than 40%) | 0 (Herbicidal ratio of 5% or less (almost no effect)) | 0 (Herbicidal ratio of 5% or less (almost no effect)) | – |
| COC1CCC(c2nnc3c(C(=O)Nc4nnc(C)o4)ccc(C(F)(F)F)n23)CC1 (stereo not drawn) [1-169] | 0 (Herbicidal ratio of 5% or less (almost no effect)) | 1 (Herbicidal ratio of 5% or more and less than 20%) | 5 (Herbicidal ratio of 90% or more (almost completely withered)) | 5 (Herbicidal ratio of 90% or more (almost completely withered)) | 0 (Herbicidal ratio of 5% or less (almost no effect)) | 5 (Herbicidal ratio of 90% or more (almost completely withered)) | 1 (Herbicidal ratio of 5% or more and less than 20%) | 1 (Herbicidal ratio of 5% or more and less than 20%) | 0 (Herbicidal ratio of 5% or less (almost no effect)) | – | – | – | – | – | – | – | – |
| Cn1nnnc1NC(=O)c1ccc(C(F)(F)F)n2c(-c3ccc(Cl)cc3)nnc12 [2-012] | 1 (Herbicidal ratio of 5% or more and less than 20%) | 2 (Herbicidal ratio of 20% or more and less than 40%) | 5 (Herbicidal ratio of 90% or more (almost completely withered)) | 5 (Herbicidal ratio of 90% or more (almost completely withered)) | 4 (Herbicidal ratio of 70% or more and less than 90%) | 4 (Herbicidal ratio of 70% or more and less than 90%) | 4 (Herbicidal ratio of 70% or more and less than 90%) | 3 (Herbicidal ratio of 40% or more and less than 70%) | 5 (Herbicidal ratio of 90% or more (almost completely withered)) | – | – | – | – | – | – | – | – |
| CC(C)[S+]([O-])c1nnc2c(C(=O)Nc3nnnn3C)ccc(C(F)(F)F)n12 (stereo not drawn) [2-032] | 5 (Herbicidal ratio of 90% or more (almost completely withered)) | 5 (Herbicidal ratio of 90% or more (almost completely withered)) | – | – | – | – | – | – | – | – | – | – | – | – | – | – | P (Stellaria media) herbicidal effect grade (Stellaria media; 320 g/ha): 5 (Herbicidal ratio of 90% or more (almost completely withered)); f (Beta vulgaris ssp. vulgaris) effect on crop grade ([3]; 320 g/ha): 5 (Herbicidal ratio of 90% or more (almost completely withered)); g (Brassica campestris L.) effect on crop grade (Brassica campestris L.; 320 g/ha): 5 (Herbicidal ratio of 90% or more (almost completely withered)); c (Glycine max) effect on crop grade (Glycine max): 5 (Herbicidal ratio of 90% or more (almost completely withered)); e (Triticum aestivum) effect on crop grade (Triticum aestivum; 320 g/ha): 5 (Herbicidal ratio of 90% or more (almost completely withered)); b (Zea mays) effect on crop grade (Zea mays): 5 (Herbicidal ratio of 90% or more (almost completely withered)); d (directly sowed Oryza sativa) effect on crop grade [4]: 5 (Herbicidal ratio of 90% or more (almost completely withered)) |
| Cn1nnnc1NC(=O)c1ccc(C(F)(F)F)n2c(C[S+](C)[O-])nnc12 (stereo not drawn) [2-033] | 4 (Herbicidal ratio of 70% or more and less than 90%) | 5 (Herbicidal ratio of 90% or more (almost completely withered)) | – | – | – | – | – | – | – | – | – | – | – | – | – | – | P (Stellaria media) herbicidal effect grade (Stellaria media; 320 g/ha): 5 (Herbicidal ratio of 90% or more (almost completely withered)); f (Beta vulgaris ssp. vulgaris) effect on crop grade ([3]; 320 g/ha): 5 (Herbicidal ratio of 90% or more (almost completely withered)); g (Brassica campestris L.) effect on crop grade (Brassica campestris L.; 320 g/ha): 5 (Herbicidal ratio of 90% or more (almost completely withered)); c (Glycine max) effect on crop grade (Glycine max): 4 (Herbicidal ratio of 70% or more and less than 90%); e (Triticum aestivum) effect on crop grade (Triticum aestivum; 320 g/ha): 4 (Herbicidal ratio of 70% or more and less than 90%); b (Zea mays) effect on crop grade (Zea mays): 5 (Herbicidal ratio of 90% or more (almost completely withered)); d (directly sowed Oryza sativa) effect on crop grade [4]: 5 (Herbicidal ratio of 90% or more (almost completely withered)) |

Reference: US9708314B2, “Heterocyclic amide compound” (NISSAN CHEMICAL INDUSTRIES, LTD., priority 2013, dated 2017)
